Where two headings read alike, the source gives them in different places.
What was measured:
HIV = experiment: EC50 of Table 1 (antiviral activity, method not described); assay type: cell-based
[1] = TD50 of Table 1 (toxic dose, method not described)
HIV protease = HIV protease (Human immunodeficiency virus type 1 group M subtype B, UniProt P04585); experiment: HIV protease enzyme assay (fluorogenic substrate 2-aminobenzoyl-Ile-Nle-Phe(p-NO2)-Gln-ArgNH2); assay type: biochemical
Method: The compounds of the present invention are effective HIV protease inhibitors. […] The calculated IC50 indicates the concentration providing inhibition of 50%, i.e., the concentration at which the inhibitor compound reduces enzyme activity by 50%). The enzyme method is described below. The substrate is 2-aminobenzoyl-Ile-Nle-Phe(p-NO2)-Gln-ArgNH2. The positive control is MVT-101 [Miller, M. et al, Science, 246, 1149 (1989)]. The assay conditions are as follows: • Assay buffer: 20 mM sodium phosphate, pH 6.4 • 20% glycerol • 1 mM EDTA • 1 mM DTT • 0.1% CHAPS
The above described substrate is dissolved in DMSO, then diluted 10 fold in assay buffer. Final substrate concentration in the assay is […].
HIV protease is diluted in the assay buffer to a final concentration of glycerol is 18%. The test compound is dissolved in DMSO and diluted in DMSO to 10× the test concentration; […] of the enzyme preparation is added, the materials mixed and then the mixture is incubated at ambient temperature for 15 minutes. The enzyme reaction is initiated by the addition of […] of substrate. The increase in fluorescence is monitored at 4 time points (0, 8, 16 and 24 minutes) at ambient temperature. Each assay is carried out in duplicate wells.

[2] = HIV protease, pH 6.4, ambient temperature, read-out: IC50
[3] = IC50 (range given for the listed examples), inhibition of the HIV enzyme, range over Examples 4, 4a, 7, 8 and 9
[4] = IC50, HIV protease, pH 6.4, ambient temperature

| Compound | EC50 (HIV) | TD50 [1] | IC50 (HIV protease; [2]) | IC50 (HIV protease; [3]) | IC50 (HIV protease; [4]) | IC50 (HIV protease; inhibition of the HIV enzyme, range over Examples 4, 4a, 7, 8 and 9, read-out: IC50 (range given for the listed examples)) |
| --- | --- | --- | --- | --- | --- | --- |
| 2H-thiopyran-3-carboxamide, N-(3-[[[(1,1-dimethylethyl amino]-carbonyl](3-methylbutyl) amino]-2-hydroxy-1-(phenylmethyl) propyl]tetrahydro,-1,1-dioxide. [Example 4] | 63 nM | 308,000 nM | 13 nM |  |  |  |
| CC(C)CCN(C[C@@H](O)[C@H](Cc1ccccc1)NC(=O)C1CCCS(=O)(=O)C1)C(=O)NC(C)(C)Cn1ccnc1 (some centres unmarked) [Example 4a] |  |  |  | 3 to 140 nM | 46 nM |  |
| CC(C)(C)NC(=O)[C@@H]1C[C@@H]2CCCC[C@@H]2CN1C[C@@H](O)[C@H](Cc1ccccc1)NC(=O)C1CCCS(=O)(=O)C1 (some centres unmarked) [Example 7] |  |  |  | 3 to 140 nM | 3 nM |  |
| CC(C)CCN(C[C@@H](O)[C@H](Cc1ccccc1)NC(=O)C1CCCS(=O)(=O)C1)S(=O)(=O)c1ccccc1 (some centres unmarked) [Example 8] |  |  |  | 3 to 140 nM | 4 nM |  |
| CC(C)CN(CC(O)C(Cc1ccccc1)NC(=O)C1CCCS(=O)(=O)C1)S(=O)(=O)NC(C)(C)C (centres unmarked) [Example 9] |  |  | 140 nM |  |  | 3 to 140 nM |

Source: patent publication US7112683B2, “Cyclic sulfone containing retroviral protease inhibitors” (priority 1992, dated 2006)
